{"source": "PubChem BioAssay AID1259409", "about": "(Chemical Carcinogenesis Research Information System (CCRIS), 2018)", "origin": "cited, not measured here", "system": "rodent chemically induced tumor inhibition, incidence and multiplicity", "test": "CCRIS tumor inhibitor studies", "conditions": "Carcinogen: 7,12-DIMETHYLBENZ[A]ANTHRACENE, 57-97-6"}
{"compound": "CC1=C(/C=C/C(C)=C/C=C/C(C)=C/C(=O)O)C(C)(C)CCC1", "values": [{"measurement": "tumour outcome (control, treated, inhibition, significance)", "setting": "Dose [Inhibitor]: 0, 2 NMOL IN 200 µL ACETONE APPLIED 30 MIN PRIOR TO EACH PROMOTER DOSE 2/WK FOR 25 WK BEGINNING 1 WK POST CARCINOGEN DOS, Route [Inhibitor]: DERMAL, Species: MOUSE, Strain/Sex: CD-1/FEMALE, Target Tissue: Type of Lesion: SKIN: PAPILLOMA, Dose [Carcinogen]: 200 NMOL IN 200 µL ACETONE ONCE, Promoter: 12-O-TETRADECANOYLPHORBOL-13-ACETATE, 16561-29-8", "result": "90%, 83%, 8%, not calculated"}, {"measurement": "tumour outcome (control, treated, inhibition, significance)", "setting": "Dose [Inhibitor]: 0, 2 NMOL IN 200 µL ACETONE APPLIED 30 MIN PRIOR TO EACH PROMOTER DOSE 2/WK FOR 25 WK BEGINNING 1 WK POST CARCINOGEN DOS, Route [Inhibitor]: DERMAL, Species: MOUSE, Strain/Sex: CD-1/FEMALE, Target Tissue: Type of Lesion: SKIN: PAPILLOMA, Dose [Carcinogen]: 200 NMOL IN 200 µL ACETONE ONCE, Promoter: MIREX, 2385-85-5", "result": "100%, 100%, 0%, not significant"}, {"measurement": "tumour outcome (control, treated, inhibition, significance)", "setting": "Dose [Inhibitor]: 0, 3 NMOL IN 0.1 ML ACETONE 2/WK APPLIED 40 MIN PRIOR TO EACH PROMOTER DOSE FOR 20 WK (STUDY DURATION: 21 WK), Route [Inhibitor]: DERMAL, Species: MOUSE, Strain/Sex: ICR/FEMALE, Target Tissue: Type of Lesion: SKIN: PAPILLOMA, Dose [Carcinogen]: 100 UG IN 0.1 ML ACETONE ONCE, Promoter: 12-0-TETRADECANOYLPHORBOL-13-ACETATE, 16561-29-8", "result": "99%, 68%, 31%, p<0.01"}, {"measurement": "tumour outcome (control, treated, inhibition, significance)", "setting": "Dose [Inhibitor]: 0, 5 NMOL IN 200 µL ACETONE APPLIED 30 MIN PRIOR TO EACH PROMOTER DOSE 2/WK FOR 25 WK BEGINNING 1 WK POST CARCINOGEN DOS, Route [Inhibitor]: DERMAL, Species: MOUSE, Strain/Sex: CD-1/FEMALE, Target Tissue: Type of Lesion: SKIN: PAPILLOMA, Dose [Carcinogen]: 200 NMOL IN 200 µL ACETONE ONCE, Promoter: 12-O-TETRADECANOYLPHORBOL-13-ACETATE, 16561-29-8", "result": "90%, 76%, 16%, not calculated"}, {"measurement": "tumour outcome (control, treated, inhibition, significance)", "setting": "Dose [Inhibitor]: 0, 5 NMOL IN 200 µL ACETONE APPLIED 30 MIN PRIOR TO EACH PROMOTER DOSE 2/WK FOR 25 WK BEGINNING 1 WK POST CARCINOGEN DOS, Route [Inhibitor]: DERMAL, Species: MOUSE, Strain/Sex: CD-1/FEMALE, Target Tissue: Type of Lesion: SKIN: PAPILLOMA, Dose [Carcinogen]: 200 NMOL IN 200 µL ACETONE ONCE, Promoter: MIREX, 2385-85-5", "result": "100%, 100%, 0%, not significant"}, {"measurement": "tumour outcome (control, treated, inhibition, significance)", "setting": "Dose [Inhibitor]: 0, 10 UG IN 0.2 ML ACETONE 1/WK FOR 5 WK APPLIED 60 MIN PRIOR TO EACH PROMOTER DOSE BEGINNING 1 WK POST CARCINOGEN DOSE, Route [Inhibitor]: DERMAL, Species: MOUSE, Strain/Sex: SENCAR/FEMALE, Target Tissue: Type of Lesion: SKIN: PAPILLOMA, Dose [Carcinogen]: 20 UG IN 0.2 ML ACETONE ONCE, Promoter: 12-O-TETRADECANOYLPHORBOL-13-ACETATE, 16561-29-8", "result": "50%, 10%, 80%, p<0.0001"}, {"measurement": "tumour outcome (control, treated, inhibition, significance)", "setting": "Dose [Inhibitor]: 0, 10 UG IN 0.2 ML ACETONE 1/WK FOR 20 WK APPLIED 60 MIN PRIOR TO EACH PROMOTER DOSE BEGINNING 1 WK POST CARCINOGEN DOSE, Route [Inhibitor]: DERMAL, Species: MOUSE, Strain/Sex: SENCAR/FEMALE, Target Tissue: Type of Lesion: SKIN: PAPILLOMA, Dose [Carcinogen]: 20 UG IN 0.2 ML ACETONE ONCE, Promoter: 12-O-TETRADECANOYLPHORBOL-13-ACETATE, 16561-29-8", "result": "95%, 55%, 42%, p<0.05"}, {"measurement": "tumour outcome (control, treated, inhibition, significance)", "setting": "Dose [Inhibitor]: 0, 10 UG IN 0.2 ML ACETONE 2/WK FOR 19 WK BEGINNING 15 WK POST PROMOTION TREATMENT (STUDY DURATION: 49 WK), Route [Inhibitor]: DERMAL, Species: MOUSE, Strain/Sex: SENCAR/FEMALE, Target Tissue: Type of Lesion: SKIN: CARCINOMA, Dose [Carcinogen]: 20 UG IN 0.2 ML ACETONE ONCE, Promoter: 12-O-TETRADECANOYLPHORBOL-13-ACETATE, 16561-29-8", "result": "99%, 54%, 45%, p<0.01"}, {"measurement": "tumour outcome (control, treated, inhibition, significance)", "setting": "Dose [Inhibitor]: 0, 10 UG IN 0.2 ML ACETONE 2/WK FOR 19 WK BEGINNING POST PROMOTION TREATMENT (STUDY DURATION: 49 WK), Route [Inhibitor]: DERMAL, Species: MOUSE, Strain/Sex: SENCAR/FEMALE, Target Tissue: Type of Lesion: SKIN: CARCINOMA, Dose [Carcinogen]: 20 UG IN 0.2 ML ACETONE ONCE, Promoter: 12-O-TETRADECANOYLPHORBOL-13-ACETATE, 16561-29-8", "result": "88%, 52%, 41%, p<0.01"}, {"measurement": "tumour outcome (control, treated, inhibition, significance)", "setting": "Dose [Inhibitor]: 0, 10 UG IN 0.2 ML ACETONE 2/WK FOR 19 WK BEGINNING POST PROMOTION TREATMENT (STUDY DURATION: 49 WK), Route [Inhibitor]: DERMAL, Species: MOUSE, Strain/Sex: SENCAR/FEMALE, Target Tissue: Type of Lesion: SKIN: CARCINOMA, Dose [Carcinogen]: 20 UG IN 0.2 ML ACETONE ONCE, Promoter: MEZEREIN, 34807-41-5", "result": "100%, 65%, 35%, p<0.01"}, {"measurement": "tumour outcome (control, treated, inhibition, significance)", "setting": "Dose [Inhibitor]: 0, 10 UG IN 0.2 ML ACETONE 2/WK FOR 20 WK APPLIED 60 MIN PRIOR TO EACH PROMOTER DOSE BEGINNING 1 WK POST CARCINOGEN DOSE, Route [Inhibitor]: DERMAL, Species: MOUSE, Strain/Sex: SENCAR/FEMALE, Target Tissue: Type of Lesion: SKIN: PAPILLOMA, Dose [Carcinogen]: 20 UG IN 0.2 ML ACETONE ONCE, Promoter: MEZEREIN, 34807-41-5", "result": "86%, 56%, 35%, p<0.05"}, {"measurement": "tumour outcome (control, treated, inhibition, significance)", "setting": "Dose [Inhibitor]: 0, 30 UG/G OF DIET FOR DURATION OF STUDY (STUDY DURATION: 35 WK), Route [Inhibitor]: ORAL, Species: MOUSE, Strain/Sex: SENCAR/FEMALE, Target Tissue: Type of Lesion: SKIN: PAPILLOMA, Dose [Carcinogen]: 25.5 UG IN 0.2 ML ACETONE 1/WK FOR 20 WK, Promoter: NONE USED", "result": "100%, 90%, 10%, not significant (at 20 wk)"}, {"measurement": "tumour outcome (control, treated, inhibition, significance)", "setting": "Dose [Inhibitor]: 0, 30 UG/G OF DIET FOR DURATION OF STUDY (STUDY DURATION: 35 WK), Route [Inhibitor]: ORAL, Species: RAT, Strain/Sex: SENCAR/FEMALE, Target Tissue: Type of Lesion: SKIN: CARCINOMA, Dose [Carcinogen]: 25.5 UG IN 0.2 ML ACETONE 1/WK FOR 20 WK, Promoter: NONE USED", "result": "24%, 19%, 21%, not significant"}, {"measurement": "tumour outcome (control, treated, inhibition, significance)", "setting": "Dose [Inhibitor]: 0, 30 UG/G OF DIET FOR DURATION OF STUDY (STUDY DURATION: 40 WK), Route [Inhibitor]: ORAL, Species: MOUSE, Strain/Sex: SENCAR/FEMALE, Target Tissue: Type of Lesion: SKIN: CARCINOMA, Dose [Carcinogen]: 20 UG IN 0.2 ML OF ACETONE ONCE, Promoter: 12-O-TETRADECANOYLPHORBOL-13-ACETATE, 16561-29-8", "result": "30%, 11%, 63%, p=0.027"}, {"measurement": "tumour outcome (control, treated, inhibition, significance)", "setting": "Dose [Inhibitor]: 0, 30 UG/G OF DIET FOR DURATION OF STUDY (STUDY DURATION: 40 WK), Route [Inhibitor]: ORAL, Species: MOUSE, Strain/Sex: SENCAR/FEMALE, Target Tissue: Type of Lesion: SKIN: CARCINOMA, Dose [Carcinogen]: 20 UG IN 0.2 ML OF ACETONE ONCE, Promoter: MEZEREIN, 34807-41-5", "result": "31%, 5%, 84%, p=0.002"}, {"measurement": "tumour outcome (control, treated, inhibition, significance)", "setting": "Dose [Inhibitor]: 1.7 NMOL IN 0.2 ML ACETONE 1 HR PRIOR TO EACH PROMOTER DOSE FOR 12 WK (STUDY DURATION: 14 WK), Route [Inhibitor]: DERMAL, Species: MOUSE, Strain/Sex: SENCAR/FEMALE, Target Tissue: Type of Lesion: SKIN: PAPILLOMA, Dose [Carcinogen]: 200 NMOL IN 0.2 ML ACETONE ONCE, Promoter: 12-O-TETRADECANOYLPHORBOL-13-ACETATE, 16561-29-8", "result": "100%, 100%, 0%, not calculated"}, {"measurement": "tumour outcome (control, treated, inhibition, significance)", "setting": "Dose [Inhibitor]: 1.7 NMOL IN 0.2 ML ACETONE 1 HR PRIOR TO EACH PROMOTER DOSE FOR 20 WK (STUDY DURATION: 22 WK), Route [Inhibitor]: DERMAL, Species: MOUSE, Strain/Sex: CD-1/FEMALE, Target Tissue: Type of Lesion: SKIN: PAPILLOMA, Dose [Carcinogen]: 200 NMOL IN 0.2 ML ACETONE ONCE, Promoter: 12-O-TETRADECANOYLPHORBOL-13-ACETATE, 16561-29-8", "result": "94%, 80%, 15%, not calculated"}, {"measurement": "tumour outcome (control, treated, inhibition, significance)", "setting": "Dose [Inhibitor]: 1.7 NMOL IN 0.2 ML ACETONE 2/WK 1 HR BEFORE EACH PROMOTER APPLICATION STARTING 14 D AFTER CARCINOGEN APPLICATION AND CON, Route [Inhibitor]: DERMAL, Species: MOUSE, Strain/Sex: CD-1/FEMALE, Target Tissue: Type of Lesion: SKIN: PAPILLOMA, Dose [Carcinogen]: 0.2 UMOL IN 0.2 ML ACETONE ONCE, Promoter: 12-O-TETRADECANOYLPHORBOL-13-ACETATE, 16561-29-8", "result": "100%, 90%, 10%, not significant"}, {"measurement": "tumour outcome (control, treated, inhibition, significance)", "setting": "Dose [Inhibitor]: 3, 30 UG IN DIET FOR DURATION OF STUDY (STUDY DURATION: 44 WK), Route [Inhibitor]: ORAL, Species: MOUSE, Strain/Sex: SENCAR/FEMALE, Target Tissue: Type of Lesion: SKIN: PAPILLOMA, Dose [Carcinogen]: 20 UG IN 0.2 ML ACETONE ONCE, Promoter: 12-O-TETRADECANOYLPHORBOL-13-ACETATE, 16561-29-8", "result": "100%, 100%, 0%, not significant"}, {"measurement": "tumour outcome (control, treated, inhibition, significance)", "setting": "Dose [Inhibitor]: 3, 30 UG/G OF DIET FOR DURATION OF STUDY BEGINNING POST CARCINOGEN DOSE (STUDY DURATION: 40 WK), Route [Inhibitor]: ORAL, Species: MOUSE, Strain/Sex: SENCAR/FEMALE, Target Tissue: Type of Lesion: SKIN: CARCINOMA, Dose [Carcinogen]: 20 UG IN 0.2 ML ACETONE ONCE AT 7 WK OF AGE, Promoter: 12-O-TETRADECANOYLPHORBOL-13-ACETATE, 16561-29-8", "result": "12/38 (32%), 3/30 (10%), 69%, p<0.05"}, {"measurement": "tumour outcome (control, treated, inhibition, significance)", "setting": "Dose [Inhibitor]: 3, 30 UG/G OF DIET FOR DURATION OF STUDY BEGINNING POST CARCINOGEN DOSE (STUDY DURATION: 40 WK), Route [Inhibitor]: ORAL, Species: MOUSE, Strain/Sex: SENCAR/FEMALE, Target Tissue: Type of Lesion: SKIN: CARCINOMA, Dose [Carcinogen]: 20 UG IN 0.2 ML ACETONE ONCE AT 7 WK OF AGE, Promoter: MEZEREIN, 34807-41-5", "result": "12/39 (31%), 5/40 (13%), 58%, p<0.05"}]}
